US20260114449A1, “CONCENTRATED ANTIMICROBIAL SOLUTIONS CONTAINING SPARINGLY SOLUBLE ANTIMICROBIAL AGENTS” (Virox Technologies Inc., priority 2023, published 2026)

Test: Solubility of salicylic acid in concentrated solution
Assay type: physicochemical
Description: Solutions 18-22 consisting of a solvent (Tamisolve NxG), a sparingly soluble antimicrobial agent (salicylic acid), and an antimicrobial surfactant (Biosoft S-101 LS) were prepared and are summarized in Table 3.
Solution 42 was prepared and visually inspected at the time of preparation, after 24 hours of storage at room temperature, and after one cycle of freezing and thawing.

## O=C(O)c1ccccc1O [salicylic acid, Salicylic acid]
Solution 42: Tamisolve NxG 35 wt. %, Biosoft S-101 LS 45 wt. %
  amount of salicylic acid effectively solubilized: 20 wt. %
Table 3 solutions: Tamisolve NxG 23.54 wt. % plus Biosoft S-101 LS
  maximum amount of salicylic acid that was solubilized: 13 wt. %
In Solution 42
  solubility of salicylic acid relative to its solubility in water: about 83 times
